# Measured values reported in article PMC4490117 (Pharmaceutical research, 2015).
# What was measured:
# [1] = tested on: subcutaneous flank SKOV-3 tumors; assay: T1-weighted MRI of tumor accumulation in tumor-bearing mice; assay type: in vivo, nu/nu mice; settings: IV, gadolinium 0.072 mmoles/kg, SKOV-3 tumor-bearing mice, n=3
# [2] = T1 relaxation time by MRI phantom, 4.7 Tesla; assay type: physicochemical; settings: same gadolinium concentration, Avg ± SD, n=3
compound,measurement,setting,value
CNC[C@H](O)[C@@H](O)[C@H](O)[C@H](O)CO.CNC[C@H](O)[C@@H](O)[C@H](O)[C@H](O)CO.O=C([O-])CN(CCN(CC(=O)[O-])CC(=O)O)CCN(CC(=O)[O-])CC(=O)O.[Gd+3] [Magnevist],time to clear from the tumor (T1-weighted images),[1]; Figure 4A,≤ 6 h
same,"time to clear from tumor tissues (relative T1 signal, % tumor signal vs time)",[1]; Figure 4B,≤ 5 h
same,T1 Relaxivity,[2],22 ms
